Laboratory results reported in patent US4975531A, “Sakyomicin E and the derivatives thereof, a process for the preparation thereof and the use thereof” (Behringwerke Aktiengesellschaft, priority 1988, dated 1990).

How the values were obtained:
[1] = test system: L1210 cells; assay: Proliferation test (MTT assay), L1210; assay type: cell-based, murine; settings: 72 hours
Description: (§1) The cytotoxic activity of the compounds according to the invention was measured in two different in vitro test systems.
(§2) 1. Proliferation test (MTT assay)
(§3) In this test system, the number of live or dead cells after incubation with the test substance for 3 days is measured by means of the NADP-dependent reduction of a colorless substrate to give a deep red-colored final product, which occurs only in live cells.
(§4) Control experiments contain merely growth medium in place of the test substance. Quadruplicate determinations were set up for each test substance and for the controls. After incubation for 65 hours, 50 μl of an MTT solution (2.5 mg/ml in phosphate buffered saline) are added. In the presence of live cells MTT is reduced to a dark-red insoluble formazan pigment. […] The insoluble pigment is dissolved by addition of 100 μl of DMSO, and the extinction of the solution produced in this way is subsequently measured for each well in a Multiscan photometer 340 CC from Flow at a wavelength of 492 nm.

[2] = test system: A 549 cells; assay: Proliferation test (MTT assay), A 549; assay type: cell-based, human; settings: A 549, MTT, 72 hours
Description: as §1, §2, §3, §4

[3] = test system: HT 29 cells; assay: Proliferation test (MTT assay), HT 29; assay type: cell-based, human; settings: HT 29, MTT, 72 hours
Description: as §1, §2, §3, §4

[4] = test system: tumor cell colonies; assay: Stem Cell Test (inhibition of tumor cell colony formation in soft agar); assay type: cell-based; settings: cell line not given; for IC50 Cont. incubation (colony formation in soft agar): continuous incubation
Description: as §1
This test system examines the ability of the test substance to inhibit the formation of tumor cell colonies in soft agar. The test was carried out by the method described by Hamburger and Salmon, with the modifications described below. Conditioned medium was replaced by McCoy 5A medium. […] The cells were incubated with various concentrations of the test substance at 37° C. for 1 hour. The cells were then washed twice with McCoy 5A medium and then plated out as the upper layer in a two-layer agar system in accordance with the Hamburger and Salmon method. Additional parallel experiments were carried out using a continuous incubation time, in which case various concentrations of the test substance were mixed with the upper agar layer before plating out the cells.
After this time, colonies with a diameter of (greater than) 60 μm were counted using an image analysis system (FAS II, Bausch and Lomb).
The IC50 for continuous and one-hour incubation was determined from the dose-effect plot (Tab. 2).

[5] = test system: E. coli; assay: antibacterial effect in vitro, agar plate diffusion test, E. coli; assay type: cell-based; settings: agar plate diffusion test (10 μl/test disk 6 mm in diameter)
Description: (§5) Examples of various organisms which emerge as sensitive to an inhibitory concentration of greater than 10 μg/ml are: E. coli, Staph. aureus, Strep. faecalis.

[6] = test system: Staph. aureus; assay: antibacterial effect in vitro, agar plate diffusion test, Staph. aureus; assay type: cell-based; settings: agar plate diffusion test (10 μl/test disk 6 mm in diameter)
Description: as §5

[7] = test system: Strep. faecalis; assay: antibacterial effect in vitro, agar plate diffusion test, Strep. faecalis; assay type: cell-based; settings: agar plate diffusion test (10 μl/test disk 6 mm in diameter)
Description: as §5

[8] = test system: Gram-positive and Gram-negative bacteria; assay: antibacterial effect in vitro against Gram-positive and Gram-negative bacteria, agar plate diffusion test; assay type: cell-based
Description: as §5

[9] = test system: human and animal tumor cells; assay: tumor-inhibiting effect in vitro; assay type: cell-based
[10] = solubility; assay type: physicochemical
[11] = stability; assay type: physicochemical

Row | Substance | IC50 L1210 (concentration which just kills 50% of the cells) [1] | IC50 A 549 (concentration which just kills 50% of the cells) [2] | IC50 HT 29 (concentration which just kills 50% of the cells) [3] | IC50 1 h incubation (colony formation in soft agar) [4] | IC50 Cont. incubation (colony formation in soft agar) [4] | inhibitory concentration, E. coli [5] | inhibitory concentration, Staph. aureus [6] | inhibitory concentration, Strep. faecalis [7] | antibacterial effect against Gram-positive and Gram-negative bacteria [8] | tumor-inhibiting effect in vitro [9] | solubility in alkanes ([10]; alkanes) | solubility in ethyl acetate, methanol, acetone, DMSO and chloroform ([10]; ethyl acetate, methanol, acetone, DMSO and chloroform) | stability in solution ([11]; in solution in the pH range from 3 to 9, especially from 5 to 8) | stability in the solid state ([11]; solid state)
1 | sakyomicin E | 0.50 µg/mL | 0.30 µg/mL | 0.08 µg/mL | 3.0 µg/mL | 0.24 µg/mL | greater than 10 μg/ml | greater than 10 μg/ml | greater than 10 μg/ml | exhibits an antibacterial effect | tumor-inhibiting effect | insoluble or only very slightly soluble | readily soluble | stable | stable
2 | 2,8,4'-tri-O-acetylsakyomicin E | 0.29 µg/mL | 0.37 µg/mL | 0.11 µg/mL | above 1.0 μg/ml | 0.30 µg/mL |  |  |  |  |  |  |  |  | 
